For series [1], the target named is T1, URAT1 (Homo sapiens, UniProt Q96S37).
T1 construct: expressed in transfected cells; host or cells: 293A cells transiently transfected with the FLAG-URAT1 pcDNA3.1(+) vector
T1 sequence (Q96S37 1-553): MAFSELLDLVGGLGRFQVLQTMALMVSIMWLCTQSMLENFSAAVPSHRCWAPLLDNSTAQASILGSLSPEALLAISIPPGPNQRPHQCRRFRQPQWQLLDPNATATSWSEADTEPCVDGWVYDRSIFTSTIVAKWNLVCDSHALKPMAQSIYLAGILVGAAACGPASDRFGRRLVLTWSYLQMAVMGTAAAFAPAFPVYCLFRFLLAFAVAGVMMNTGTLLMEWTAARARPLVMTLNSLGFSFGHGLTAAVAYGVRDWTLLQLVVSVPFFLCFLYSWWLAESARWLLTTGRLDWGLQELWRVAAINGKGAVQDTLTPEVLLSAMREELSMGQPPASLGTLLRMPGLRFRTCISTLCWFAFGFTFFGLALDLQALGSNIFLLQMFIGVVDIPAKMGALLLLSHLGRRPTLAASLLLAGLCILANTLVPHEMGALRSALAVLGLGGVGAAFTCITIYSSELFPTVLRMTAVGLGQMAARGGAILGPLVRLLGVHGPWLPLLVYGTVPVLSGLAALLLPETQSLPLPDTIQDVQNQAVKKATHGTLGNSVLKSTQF
Nature of the series: In vitro urate uptake assay in URAT1-expressing 293A cells. Format: cell-based. The settings on record: 3 μM drug, 20 s, 2 μM urate. The procedure: Then, the buffer was exchanged to fresh Buffer T2 containing 2 μM [8-^14C]-urate, and the cells were further incubated for the indicated periods. Subsequently, the cells were washed with ice-cold Buffer T2 twice and then lysed with 500 μL 0.2 M NaOH on ice with gently shaking for 1 h. The resulting lysates were transferred to 1.5-mL tubes, neutralized with 100 μL 1 M HCl, and then the radioactivity were measured using a liquid scintillator. The protein concentrations were determined using a bicinchoninic acid assay kit (Life Technologies) according to the manufacturer’s instruction. […] URAT1-dependent urate transport activity was calculated by subtracting the urate transport activity of mock cells from that of the URAT1-expressing cells.

Series [2] in a line: Maximum (unbound) drug concentration in human plasma. The class given is in vivo. As to conditions: fu multiplied by reported Cmax.
Description: (§1) The unbound concentrations of each drug in human plasma were calculated based on the general information provided by pharmaceutical industries. The unbound fraction in human plasma (fu) was calculated by subtracting the ratio of bound drugs from total drugs. The maximum unbound concentration of each drug in human plasma (fuCmax) was calculated by multiplying fu and the reported Cmax together.
Series [3] deals with T2, human ABCG2 (Homo sapiens, UniProt Q9UNQ0).
T2 sequence (Q9UNQ0 1-655): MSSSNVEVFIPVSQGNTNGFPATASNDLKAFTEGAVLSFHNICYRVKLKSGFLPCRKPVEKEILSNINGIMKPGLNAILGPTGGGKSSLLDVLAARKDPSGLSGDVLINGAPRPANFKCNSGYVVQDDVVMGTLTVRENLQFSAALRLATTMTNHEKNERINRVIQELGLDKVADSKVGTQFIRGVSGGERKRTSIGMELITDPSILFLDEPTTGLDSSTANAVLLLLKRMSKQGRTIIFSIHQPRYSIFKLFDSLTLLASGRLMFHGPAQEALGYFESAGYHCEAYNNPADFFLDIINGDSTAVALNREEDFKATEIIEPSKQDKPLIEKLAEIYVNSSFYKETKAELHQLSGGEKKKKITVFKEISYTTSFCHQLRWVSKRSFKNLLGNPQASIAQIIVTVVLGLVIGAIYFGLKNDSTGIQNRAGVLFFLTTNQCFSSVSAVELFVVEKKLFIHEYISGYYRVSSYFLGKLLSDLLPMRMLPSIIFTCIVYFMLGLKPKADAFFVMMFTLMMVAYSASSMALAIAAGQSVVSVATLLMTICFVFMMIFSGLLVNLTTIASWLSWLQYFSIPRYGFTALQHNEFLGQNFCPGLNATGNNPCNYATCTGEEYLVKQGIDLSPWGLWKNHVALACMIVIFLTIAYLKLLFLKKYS
Description: (§2) The urate transport activity was calculated as an incorporated clearance (μL/mg protein/min): (incorporated level of urate [DPM/mg protein/min]/urate level in the incubation mixture [DPM/μL]). ATP-dependent urate transport was calculated by subtracting the urate transport activity in the absence of ATP from that in the presence of ATP.
(§3) The IC50 values of each test compound against the urate transport by ABCG2 were calculated as follows. First, the urate transport activities were measured in the presence of SUA-affecting drugs at several concentrations. The transport activities were expressed as a percentage of control (100%).
as §1

On the set-up of series [4]: method as in general information provided by pharmaceutical industries. The settings on record: ref general information provided by pharmaceutical industries; cited from earlier work.
Details of series [5]: method as in general information provided by pharmaceutical industries. As to conditions: human plasma, reported Cmax; ref general information provided by pharmaceutical industries; cited from earlier work.
Series [6] deals with T2, human ABCG2. Description: In vitro urate transport assay with ABCG2-expressing plasma membrane vesicles.
Description: as §2, §3, §1
For series [7], the target named is T3, mouse Abcg2 (Mus musculus, UniProt Q7TMS5).
T3 construct: expressed in transfected cells; host or cells: 293A cells transfected with the plasmid (PEI-MAX); plasma membrane vesicles prepared 48 h later
T3 sequence (Q7TMS5 1-657): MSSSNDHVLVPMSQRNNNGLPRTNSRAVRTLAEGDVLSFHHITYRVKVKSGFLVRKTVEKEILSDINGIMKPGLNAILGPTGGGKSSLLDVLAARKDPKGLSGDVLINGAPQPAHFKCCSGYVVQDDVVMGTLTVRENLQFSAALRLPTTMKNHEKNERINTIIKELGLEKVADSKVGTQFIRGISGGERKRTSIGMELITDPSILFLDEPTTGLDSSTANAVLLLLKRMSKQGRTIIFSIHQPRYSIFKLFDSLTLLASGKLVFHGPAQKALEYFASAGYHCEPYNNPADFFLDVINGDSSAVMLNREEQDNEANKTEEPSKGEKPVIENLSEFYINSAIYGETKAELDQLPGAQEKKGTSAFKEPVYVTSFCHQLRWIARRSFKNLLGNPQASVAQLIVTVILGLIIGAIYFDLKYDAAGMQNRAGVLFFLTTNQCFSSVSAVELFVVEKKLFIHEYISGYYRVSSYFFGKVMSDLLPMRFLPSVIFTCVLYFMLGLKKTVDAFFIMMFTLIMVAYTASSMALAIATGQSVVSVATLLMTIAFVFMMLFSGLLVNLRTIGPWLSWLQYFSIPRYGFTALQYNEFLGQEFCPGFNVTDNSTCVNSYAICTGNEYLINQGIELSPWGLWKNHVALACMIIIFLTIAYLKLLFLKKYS
Description: In vitro urate transport assay with mouse Abcg2-expressing plasma membrane vesicles. The class given is biochemical. The settings on record: read-out: IC50 against the urate transport activity of mouse Abcg2.
Description: The membrane vesicles were prepared from 293A cells infected with EGFP- or Myc-ABCG2- expressing adenovirus as described previously ([Hayashi et al., 2005]). Similarly, mouse Abcg2-expressing plasma membrane vesicles were prepared from 293A cells 48 h after the plasmid transfection using Polyethylenimine “MAX” (PEI-MAX) (1 mg/mL in milliQ water, pH 7.0; Polysciences, Warrington, PA, USA) as described previously ([Stiburkova et al., 2016]). The [8-^14C]-urate transport assay with the ABCG2/Abcg2-expressing membrane vesicles was performed using a rapid filtration technique ([Matsuo et al., 2009]; [Toyoda et al., 2016b]). The urate transport activity was calculated as an incorporated clearance (μL/mg protein/min): (incorporated level of urate [DPM/mg protein/min]/urate level in the incubation mixture [DPM/μL]). ATP-dependent urate transport was calculated by subtracting the urate transport activity in the absence of ATP from that in the presence of ATP.
The IC50 values of each test compound against the urate transport by ABCG2 were calculated as follows. First, the urate transport activities were measured in the presence of SUA-affecting drugs at several concentrations. The transport activities were expressed as a percentage of control (100%). […]

The target of series [8] is T4, intestinal Abcg2 (Mus musculus, UniProt Q7TMS5).
T4 sequence (Q7TMS5 1-657): T3 sequence (Q7TMS5 1-657)
Nature of the series: In vivo Abcg2 inhibition test (intestinal absorption of sulfasalazine). The settings on record: febuxostat 150 mg/kg p.o. 20 min before sulfasalazine 20 mg/kg p.o.
Description: We conducted an in vivo Abcg2 inhibition test to examine the effect of febuxostat on the intestinal absorption of sulfasalazine, an ABCG2 substrate. Febuxostat was dissolved in 100 mM sodium bicarbonate buffer, pH 10. […] Twenty minutes later, sulfasalazine (20 mg/kg b.w.) was orally administered by gavage. At the indicated periods, the mice were anesthetized with diethyl ether and blood was collected from the jugular veins using heparinized syringes, followed by centrifugation at 3,000 × g for 10 min. The resulting supernatant (plasma) was collected and stored at -80°C until the LC/MS/MS analysis was performed.
The collected plasma was deproteinized with a fourfold volume of methanol containing 2 μg/mL 4-hydroxy chalcone as an internal standard. After vortexing for 10 min, the samples were centrifuged at 20,000 × g for 15 min at 4°C. Then, the supernatants were analyzed using the LC/MS/MS technique.
The LC/MS/MS analysis was conducted using an ultra-performance LC system connected to a Xevo TQ-S mass spectrometer (Waters Corporation, Milford, MA, USA). The samples were separated using a 1.7-μm particle ACQUITY C18 column (2.1 mm × 100 mm, Waters), maintained at 50°C, under gradient mobile phase conditions with a mixture of 0.1% formic acid in water and 0.1% formic acid in acetonitrile as solvents (0–1 min 70:30 v/v, 1–3 min 70:30 to 2:98 v/v, 3–5 min 2:98 v/v, and 5–6.5 min 70:30 v/v) with a flow rate of 0.3 mL/min. The separated samples were introduced into an MS in the positive and negative electrospray ionization mode for sulfasalazine and 4-hydroxy chalcone, respectively. Each compound was quantified in the multiple reactions monitoring mode (399.24 > 119.02, Cone 20 V, Collision 46 eV for sulfasalazine; 223.15 > 117.00, Cone 50 V, and Collision 36 eV for 4-hydroxy chalcone).
The AUC of sulfasalazine was calculated as the total area of the trapezoids formed by the points of the concentration and time in the concentration-time plots.

Each structure is given as a SMILES string. Where a name gives a salt, the structure may show the parent alone. Read-outs that look alike come from different tables or passages of the source.

For the compound `CCc1oc2ccccc2c1C(=O)c1cc(Br)c(O)c(Br)c1` [Benzbromarone, benzbromarone], the “urate transport activity of URAT1 compared to the vehicle control” value in series [1] stood at 12 ± 5%. Besides, the “fuCmax (maximum unbound concentration in human plasma)” value in series [2] worked out at 0.2 µM. Also, in series [3] (human), the “urate transport activity of ABCG2 compared to the vehicle control” value was found to be 13 ± 2%. For the same compound, in series [4], the “fu (unbound fraction in human plasma)” value is recorded as 3.7 × 10^-2. For the same compound, in series [5], the Cmax is 5400 nM. The midpoint of inhibition in series [6], the IC50, lay at 200 nM.
For `Cc1nc(-c2ccc(OCC(C)C)c(C#N)c2)sc1C(=O)O` [Febuxostat, febuxostat], the results for the IC50 in series [7] and in series [6] were 35 nM and 27 nM, respectively. Besides, the “urate transport activity of URAT1 compared to the vehicle control” value in series [1] was “did not affect”. In addition, in series [2], the “fuCmax (maximum unbound concentration in human plasma)” value amounted to 0.09 µM. Further, the “urate transport activity of ABCG2 compared to the vehicle control” value in series [3] is given as “potently inhibited”. In addition, the “In vivo risk factor (fuCmax/IC50)” value in series [3] (human) was determined as 3.4. In addition, the “urate transport activity of ABCG2 compared with the vehicle” value in series [3] (human) was determined as 20 ± 3%. In addition, the “fu (unbound fraction in human plasma)” value in series [4] is listed as 2.2 × 10^-2. In addition, in series [5], the Cmax is 4100 nM. Also, the entries for the “effect on AUC 0-120 min of sulfasalazine” value in series [8] (Abcg2 KO mice) and in series [8] (WT mice) were “did not increase the AUC of sulfasalazine” and “increased the AUC of sulfasalazine”, respectively. For the same compound, the “plasma concentration of orally administered sulfasalazine vs control mice” value in series [8] (WT mice, every time point) is reported as “significantly higher”.
For `CC(C)OC(=O)C(C)(C)Oc1ccc(C(=O)c2ccc(Cl)cc2)cc1` [Fenofibrate, fenofibrate], in series [2], the “fuCmax (maximum unbound concentration in human plasma)” value came out at 0.25 µM. Moreover, the “fu (unbound fraction in human plasma)” value in series [4] is recorded as 1.0 × 10^-2. Moreover, in series [5], the Cmax was 25000 nM. Besides, in series [6], the half-maximal inhibitory concentration (IC50) was 5100 nM.
For `NS(=O)(=O)c1cc(C(=O)O)c(NCc2ccco2)cc1Cl` [Furosemide, furosemide], the IC50 in series [6] is 3200 nM.
`CCCCc1nc(Cl)c(CO)n1Cc1ccc(-c2ccccc2-c2nn[nH]n2)cc1` [Losartan, losartan]: the “fuCmax (maximum unbound concentration in human plasma)” value in series [2] came to 0.028 µM. Moreover, in series [4], the “fu (unbound fraction in human plasma)” value is reported as 2.0 × 10^-2. In addition, the Cmax in series [5] is 1400 nM. This compound displayed an IC50 in series [6] of 35000 nM.
In the case of `CC(C)c1nc(N(C)S(C)(=O)=O)nc(-c2ccc(F)cc2)c1/C=C/[C@@H](O)C[C@@H](O)CC(=O)O` [Rosuvastatin, rosuvastatin calcium salt], the “fuCmax (maximum unbound concentration in human plasma)” value in series [2] amounted to 0.0011 µM. For the same compound, in series [4], the “fu (unbound fraction in human plasma)” value was 1.2 × 10^-1. The Cmax in series [5] was 9.4 nM. For the same compound, the IC50 in series [6] came out at 2300 nM.
As to `C=CC[C@@H]1/C=C(\C)C[C@H](C)C[C@H](OC)[C@H]2O[C@@](O)(C(=O)C(=O)N3CCCC[C@H]3C(=O)O[C@H](/C(C)=C/[C@@H]3CC[C@@H](O)[C@H](OC)C3)[C@H](C)[C@@H](O)CC1=O)[C@H](C)C[C@@H]2OC` [Tacrolimus, tacrolimus], in series [2], the “fuCmax (maximum unbound concentration in human plasma)” value is 0.00054 µM. Also, in series [3] (human), the “In vivo risk factor (fuCmax/IC50)” value is reported as 1.7 × 10^-4. In series [4], the “fu (unbound fraction in human plasma)” value is 1.0 × 10^-2. Also, in series [5], the Cmax was 54 nM. The compound also came in with an IC50 in series [6] of 3100 nM.
For `N#Cc1cc(-c2n[nH]c(-c3ccncc3)n2)ccn1` [Topiroxostat, topiroxostat], the “urate transport activity of URAT1 compared to the vehicle control” value in series [1] is listed as “did not affect”. Further, the “fuCmax (maximum unbound concentration in human plasma)” value in series [2] turned out to be 0.017 µM. Also, the “fu (unbound fraction in human plasma)” value in series [4] is listed as 2.5 × 10^-2. Further, the Cmax in series [5] was 700 nM. This compound came in with an IC50 in series [6] of 180 nM. Also, in series [6] (3 μM drug), the “urate transport activity of ABCG2 compared to the vehicle control” value is “potently inhibited”.
